According to patent US20240254138A1, “TRICYCLIC PYRIMIDINES AS CYCLIN-DEPENDENT KINASE 7 (CDK7) INHIBITORS” (JANSSEN PHARMACEUTICA NV, priority 2021, published 2024):
Read-outs that look alike come from different tables or passages of the source.

How the values were obtained:
[1] = system: RNA Polymerase II Serine 5 phosphorylation (Rpb1 CTD, downstream substrate of CDK7) in A549 cells; assay: Imaging-based cellular RNA PolII Ser5 phosphorylation assay in A549 cells; type: cell-based, human; details: wild-type CDK7, RNA PolII Ser5 phosphorylation, averaged over all measurements; for IC50: Homo sapiens, A549, A549 cells, read-out: CDK7_A549 Wild-type CDK7 (pIC50) (converted); for CDK7_A549 Wild-type CDK7 (pIC50): A549 cells
Procedure, shortened: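 IC50 derived by fitting % control (DMSO high, 10 μM reference low) against concentration, with Hill slope. Readout: high-content imaging of phospho-Ser5 Rpb1 CTD antibody staining in fixed, permeabilized A549 cells exposed to compound 3 h after 20 h culture in 1% FBS DMEM.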

[2] = system: RNA Polymerase II Serine 5 phosphorylation in A549 cells overexpressing CDK7-mutant (C312S); assay: Imaging-based cellular RNA PolII Ser5 phosphorylation assay in A549 cells overexpressing CDK7-mutant (C312S); type: cell-based, human; details: RNA PolII Ser5 phosphorylation, averaged over all measurements; for IC50: Homo sapiens, A549, A549 cells overexpressing CDK7-mutant (C312S), read-out: CDK7_A549 mutant hCDK7(pIC50) (converted); for CDK7_A549 mutant hCDK7(pIC50): A549 cells overexpressing CDK7-mutant (C312S)
Procedure, shortened: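 Readout was automated imaging of anti-phospho-Ser5 Rpb1 CTD immunofluorescence, with IC50 fitted to % control versus concentration. Cells were A549 stably overexpressing non-covalently targetable CDK7 C312S alongside wild-type, exposed to compound 3 h at 37 °C. DMSO and 10 μM reference compound served as controls.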

[3] = target: CDK7/cyclinH/MAT1 trimeric complex (Homo sapiens, UniProt P50613); assay: In vitro CDK7 assay, potency of irreversible covalent inhibitors (kinact/KI), coupled PK/LDH ADP readout at 340 nm; details: for Ki: CDK7 (20 nM enz.) (KI, μM); for kinact: read-out: CDK7 (20 nM enz.) (kinact, s^−1), 20 nM enzyme; for CDK7 (kinact/KI, M^−1*s^−1): potency of irreversible covalent inhibitors, 1 mM ATP, room temperature, averaged values over all measurements
Sequence of CDK7/cyclinH/MAT1 trimeric complex (P50613 whole entry): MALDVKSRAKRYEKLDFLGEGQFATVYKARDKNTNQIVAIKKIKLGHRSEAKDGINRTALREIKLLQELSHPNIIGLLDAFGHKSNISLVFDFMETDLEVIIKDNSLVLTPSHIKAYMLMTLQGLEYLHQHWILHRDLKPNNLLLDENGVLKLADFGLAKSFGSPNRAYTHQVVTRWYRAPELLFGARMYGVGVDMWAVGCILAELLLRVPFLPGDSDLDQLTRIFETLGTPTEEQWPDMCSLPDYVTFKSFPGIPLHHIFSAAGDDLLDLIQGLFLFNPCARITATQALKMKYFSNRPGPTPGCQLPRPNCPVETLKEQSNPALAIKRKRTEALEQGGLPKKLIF
Sequence of CDK7/cyclinH/MAT1 trimeric complex (P51946 whole entry partner): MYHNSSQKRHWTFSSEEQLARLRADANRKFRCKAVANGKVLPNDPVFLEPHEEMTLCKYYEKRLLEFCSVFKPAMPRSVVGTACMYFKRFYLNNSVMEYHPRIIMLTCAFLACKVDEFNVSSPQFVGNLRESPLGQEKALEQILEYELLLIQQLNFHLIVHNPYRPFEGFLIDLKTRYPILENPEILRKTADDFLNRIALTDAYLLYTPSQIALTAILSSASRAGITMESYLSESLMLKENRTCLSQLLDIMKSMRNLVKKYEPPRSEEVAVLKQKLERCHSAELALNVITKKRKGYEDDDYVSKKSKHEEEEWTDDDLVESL
Sequence of CDK7/cyclinH/MAT1 trimeric complex (P51948 whole entry partner): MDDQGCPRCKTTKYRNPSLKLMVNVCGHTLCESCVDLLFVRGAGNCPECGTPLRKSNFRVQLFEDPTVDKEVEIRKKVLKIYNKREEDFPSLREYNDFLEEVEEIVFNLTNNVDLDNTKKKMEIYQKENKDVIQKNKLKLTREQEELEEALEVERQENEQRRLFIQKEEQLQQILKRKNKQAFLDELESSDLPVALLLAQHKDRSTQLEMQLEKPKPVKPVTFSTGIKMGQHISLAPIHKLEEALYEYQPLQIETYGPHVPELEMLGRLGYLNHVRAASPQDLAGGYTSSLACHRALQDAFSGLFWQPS

[4] = read-out: CDK7 (20 nM enz.) (kinact/KI, M^−1*s^−1), 20 nM enzyme
[5] = read-out: CDK7 (20 nM enz.) (kobs/[I], M^−1*s^−1), 20 nM enzyme

Row | IC50 [1] | IC50 [2] | melting point | Ki ([3]; 20 nM enzyme) | kinact [3] | kinact/KI [3, 4] | kinact/KI [3, 5] | CDK7_A549 Wild-type CDK7 (pIC50) [1] | CDK7_A549 mutant hCDK7(pIC50) [2] | CDK7 (20 nM enz.) (kinact, s^−1) ([3]; 20 nM enzyme) | CDK7 (20 nM enz.) (kinact/KI, M^−1*s^−1) ([3]; 20 nM enzyme) | CDK7 (kinact/KI, M^−1*s^−1) [3] | SMILES
1 | 105 nM | > 10000 nM |  | 0.0477 µM | 2.18e-05 s⁻¹ | 457 M⁻¹ s⁻¹ |  |  |  |  |  |  | CC#CC(=O)N1CCC(N2CCN(c3cc4c(c(C)n3)OCc3c(N5CCOCC5)ccnc3N4)CC2)CC1 [Compound 393]
2 | 339 nM | > 10000 nM |  | 0.313 µM | 1.25e-05 s⁻¹ | 39.9 M⁻¹ s⁻¹ |  |  |  |  |  |  | CC#CC(=O)N1CCN(C2CN(c3cc4c(c(C)n3)OCc3c(N5CCOCC5)ccnc3N4)C2)CC1 [Compound 394]
3 | 93.3 nM | > 10000 nM |  | 0.0643 µM | 5.18e-05 s⁻¹ | 807 M⁻¹ s⁻¹ |  |  |  |  |  |  | CC#CC(=O)N1CCN(C2CCN(c3cc4c(c(C)n3)OCc3c(N5CCOCC5)ccnc3N4)CC2)CC1 [Compound 396]
4 | 447 nM | > 10000 nM |  | 0.0839 µM | 6.61e-06 s⁻¹ | 78.8 M⁻¹ s⁻¹ |  |  |  |  |  |  | CC#CC(=O)N1CCC(n2cc(-c3cc4c(c(C)n3)OCc3c(N5CCOCC5)ccnc3N4)cn2)CC1 [Compound 399]
5 | 105 nM | > 10000 nM |  | 0.0914 µM | 5.02e-05 s⁻¹ | 549 M⁻¹ s⁻¹ |  |  |  |  |  |  | CC#CC(=O)N1CC(N2CCC(c3cc4c(c(C5CC5)n3)OCc3c(C5CCOCC5)ccnc3N4)CC2)C1 [Compound 400]
6 | 174 nM | > 10000 nM |  | 0.203 µM | 6.11e-05 s⁻¹ | 300 M⁻¹ s⁻¹ |  |  |  |  |  |  | CC#CC(=O)N1CC(N2CCC(c3cc4c(c(C)n3)OCc3c(C5CCOCC5)ccnc3N4)CC2)C1 [Compound 410]
7 | 251 nM | > 10000 nM |  | 0.0611 µM | 4.36e-05 s⁻¹ | 714 M⁻¹ s⁻¹ |  |  |  |  |  |  | CC#CC(=O)N1CCC(n2ccc(-c3cc4c(c(C)n3)OCc3c(N5CCOCC5)ccnc3N4)cc2=O)CC1 [Compound 414]
8 | 1100 nM | > 10000 nM |  | 0.401 µM | 1.01e-05 s⁻¹ | 25.2 M⁻¹ s⁻¹ |  |  |  |  |  |  | C=CC(=O)N1CCC(C2CN(c3cc4c(c(C)n3)OCc3c(N5CCOCC5)ccnc3N4)C2)CC1 [Compound 439]
9 |  |  |  | 0.0717 µM |  |  |  | 7.13 | 5.54 | 3.153e-05 s⁻¹ | 439.69 M⁻¹ s⁻¹ |  | C=CC(=O)N1CCC(N2CC(c3cc4c(c(C(F)(F)F)n3)OCc3c(N5CCOCC5)ccnc3N4)C2)CC1 [Compound 453]
10 | 550 nM | > 10000 nM |  | 0.236 µM | 2.18e-05 s⁻¹ | 92.5 M⁻¹ s⁻¹ |  |  |  |  |  |  | C=CC(=O)N1CCC(N2CCC(c3cc4c(c(C)n3)OCc3c(N5CCOCC5)ccnc3N4)CC2=O)CC1 (centres unmarked) [Compound 476]
11 | 141 nM | > 10000 nM |  |  |  | 289 M⁻¹ s⁻¹ |  |  |  |  |  |  | CC#CC(=O)N1CCC(N2CCC(c3cc4c(c(C)n3)OCc3c(N5CCOCC5)ccnc3N4)CC2=O)CC1 (centres unmarked) [Compound 484]
12 | 74.1 nM | 3310 nM |  |  |  | 473 M⁻¹ s⁻¹ |  |  |  |  |  |  | CC#CC(=O)N1CCC(N2CC(c3cc4c(c(C(F)(F)F)n3)OCc3c(N5CCOCC5)ccnc3N4)C2)CC1 [Compound 490]
13 | 14.1 nM | 7240 nM |  |  |  |  | 680 M⁻¹ s⁻¹ |  |  |  |  |  | C=C(C(=O)N1CC(N2CCC(c3cc4c(c(C)n3)OCc3c(N5CCOCC5)ccnc3N4)CC2)C1)n1cccn1 [Compound 496]
14 |  |  |  |  |  |  |  | 6.84 | <5 |  |  | 1065.34 M⁻¹ s⁻¹ | C=CC(=O)N1CC(N2CCC(c3ccc4c(c3)Nc3nccc(N5CCOCC5)c3CO4)CC2)C1 [compound 7]

Continued, molecule first:

Row | SMILES | IC50 [1] | IC50 [2] | melting point | Ki ([3]; 20 nM enzyme) | kinact [3] | kinact/KI [3, 4] | kinact/KI [3, 5] | CDK7_A549 Wild-type CDK7 (pIC50) [1] | CDK7_A549 mutant hCDK7(pIC50) [2] | CDK7 (20 nM enz.) (kinact, s^−1) ([3]; 20 nM enzyme) | CDK7 (20 nM enz.) (kinact/KI, M^−1*s^−1) ([3]; 20 nM enzyme) | CDK7 (kinact/KI, M^−1*s^−1) [3]
15 | C=CC(=O)N1CC(N2CCC(c3ccc4c(c3)Nc3nccc(-c5cnn(C)c5)c3[C@H](C)O4)CC2)C1 (single isomer, unassigned) [Compound 128] | 4470 nM | > 10000 nM | 223.3 °C | 10.2 µM | 0.000115 s⁻¹ | 11.3 M⁻¹ s⁻¹ |  |  |  |  |  | 
16 | C=CC(=O)N1CC(N2CC[C@H](c3cc4c(c(C)n3)O[C@@H](C)c3c(N5CCOCC5)ccnc3N4)C2)C1 (single isomer, unassigned) [Compound 218] | 8510 nM | > 10000 nM | > 300 °C |  |  | 0.84 M⁻¹ s⁻¹ |  |  |  |  |  | 
17 | C=CC(=O)N1CC[C@H](N2CCC(c3ccc4c(c3)Nc3ncc(F)c(N5CCOCC5)c3CO4)CC2)C1 (single isomer, unassigned) [Compound 222] | 97.7 nM | > 10000 nM | 138 °C | 0.18 µM | 7.49e-05 s⁻¹ | 416 M⁻¹ s⁻¹ |  |  |  |  |  | 
18 | C=CC(=O)N1CC[C@@H](N2CCC(c3ccc4c(c3)Nc3ncc(F)c(N5CCOCC5)c3CO4)CC2)C1 (single isomer, unassigned) [Compound 223] | 41.7 nM | 7590 nM | 106 °C | 0.127 µM | 6.11e-05 s⁻¹ | 480 M⁻¹ s⁻¹ |  |  |  |  |  | 
19 | C=CC(=O)N1CC(N2CCC(c3cc4c(c(C)n3)O[C@H](C)c3c(N5CCOCC5)ccnc3N4)CC2)C1 (single isomer, unassigned) [Compound 262] | 29.5 nM | > 10000 nM | 225 °C | 0.0323 µM | 3.71e-05 s⁻¹ | 1150 M⁻¹ s⁻¹ |  |  |  |  |  | 
20 | C=CC(=O)N1CC(N2CCC(c3cc4c(cn3)O[C@H](C)c3c(N5CCOCC5)ccnc3N4)CC2)C1 (single isomer, unassigned) [Compound 263] | 51.3 nM | > 3980 nM | > 300 °C | 0.168 µM | 5.18e-05 s⁻¹ | 308 M⁻¹ s⁻¹ |  |  |  |  |  | 
21 | C=CC(=O)N1CC(N2CCC(c3cc4c(c(C)n3)O[C@@H](C)c3c(N5CCOCC5)ccnc3N4)CC2)C1 (single isomer, unassigned) [Compound 265] | 2090 nM | > 10000 nM | 288.5 °C |  |  |  |  |  |  |  |  | 
22 | CC#CC(=O)N1CC(n2cc(-c3cc(C#N)c4c(c3)Nc3nccc(N5CCOCC5)c3C(C)O4)cn2)C1 (centres unmarked) [Compound 417] | 58.9 nM | 2950 nM |  | 0.0223 µM | 1.51e-05 s⁻¹ | 678 M⁻¹ s⁻¹ |  |  |  |  |  | 
23 | COC(=O)/C=C/C(=O)N1CC(N2CCC(c3cc4c(c(C)n3)OCc3c(-c5cnn(C)c5)ccnc3N4)CC2)C1 [Compound 431] | 55 nM | > 10000 nM |  |  |  |  | 1170 M⁻¹ s⁻¹ |  |  |  |  | 
24 | CCOC(=O)/C=C/C(=O)N1CC(N2CCC(c3cc4c(c(C)n3)OCc3c(-c5cnn(C)c5)ccnc3N4)CC2)C1 [Compound 435] | 69.2 nM | > 10000 nM |  |  |  |  | 856 M⁻¹ s⁻¹ |  |  |  |  | 
25 | Cc1nc(C2CCN(C3CN(C(=O)/C=C/C(=O)OC(C)C)C3)CC2)cc2c1OCc1c(-c3cnn(C)c3)ccnc1N2 [Compound 436] | 575 nM | > 10000 nM |  | 0.311 µM | 4.3e-05 s⁻¹ | 138 M⁻¹ s⁻¹ |  |  |  |  |  | 
26 | CC#CC(=O)N1CCC(N2CC(c3cc4c(c(C#N)n3)OCc3c(-c5cnn(C)c5)ccnc3N4)C2)C1 (centres unmarked) [Compound 529] | 1740 nM | > 10000 nM |  | 0.0408 µM | 1.66e-05 s⁻¹ | 409 M⁻¹ s⁻¹ |  |  |  |  |  | 
27 | Cc1nc(C2CN(C3CCN(C(=O)/C=C/CN(C)C)CC3)C2)cc2c1OCc1c(-c3cnn(C)c3)ccnc1N2 [Compound 532] | 427 nM | 10200 nM |  | 0.0823 µM | 1.52e-05 s⁻¹ | 184 M⁻¹ s⁻¹ |  |  |  |  |  | 
28 | C=C(C)C(=O)N1CC(N2CCC(c3cc4c(c(C)n3)OCc3c(-c5cnn(C)c5)ccnc3N4)CC2)C1 [Compound 536] | > 10000 nM | > 10000 nM |  | 6.8 µM |  |  |  |  |  |  |  | 
29 | C=C(F)C(=O)N1CC(N2CCC(c3cc4c(c(C)n3)OCc3c(-c5cnn(C)c5)ccnc3N4)CC2)C1 [Compound 539] | 1320 nM | > 10000 nM |  | 0.0196 µM |  |  |  |  |  |  |  | 
30 | Cc1nc(C2CCN(C3CN(C(=O)/C=C/CN(C)C)C3)CC2)cc2c1OCc1c(-c3cnn(C)c3)ccnc1N2 [Compound 540] | 550 nM | > 10000 nM |  | 0.0301 µM | 7.15e-05 s⁻¹ | 2310 M⁻¹ s⁻¹ |  |  |  |  |  | 
31 | C=CC(=O)N1CC(N2CCC(c3ccc4c(c3)Nc3nccc(N5CCS(=O)(=O)CC5)c3CO4)CC2)C1 [compound 14] |  |  |  | 0.13 µM | 7.07e-05 s⁻¹ | 545 M⁻¹ s⁻¹ |  | 6.4 | <5 |  |  | 710 M⁻¹ s⁻¹
32 | C=CC(=O)N1CC(N2CCC(c3ccc4c(c3)Nc3nccc(C5CCOCC5)c3CO4)CC2)C1 [compound 15] |  |  |  |  |  |  |  | 7.26 | <5 |  |  | 320.6 M⁻¹ s⁻¹
33 | C=CC(=O)N1CC(N2CCC(c3ccc4c(c3)Nc3nccc(C5CCOCC5)c3CO4)CC2)C1 [compound 34] |  |  |  |  |  |  | 1030 M⁻¹ s⁻¹ | 6.81 | <5 |  |  | 2083.98 M⁻¹ s⁻¹
